Common to all, as to assay: inhibition of tumour cell growth, NCI panel, 48 h
Assay [1] deals with EKVX NSCLC.
Assay [2] deals with HL-60(TB) leukemia.
The test system of assay [3] is ACHN renal.
The subject of assay [4] is MCF7 breast.
Assay [5] has as its system RPMI-8226 leukemia.
Assay [6] deals with SNB-19 CNS.
For assay [7], the system named is MALME-3M melanoma.
Assay [8] relates to U251 CNS.

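These data come from cells grown in 96-well plates and exposed to compound for 48 hours at five concentrations. TGI: total growth inhibition.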

Take `N#CCOc1cccc(C2(N3CC=CCC3)CCCCC2)c1`: the TGI in assay [1], in assay [2], in assay [3], in assay [4], in assay [5] and in assay [6] was above 100 µM in each case. Further, the TGI in assay [7] and in assay [8] was above 100 µM in each case.
As for `COc1ccc(-c2nnc(-c3ccncc3)o2)cc1`, the TGI in assay [1], in assay [2], in assay [3], in assay [4], in assay [5] and in assay [6] was above 100 µM throughout. The TGI in assay [7] and in assay [8] was above 100 µM in each case.
`C=CCCC(On1c(-c2ccc(Cl)cc2)csc1=S)c1ccccc1` (stereo unspecified): the TGI in assay [1] was above 100 µM; in assay [2], 53.6 µM; in assay [3], above 100 µM; in assay [4] it was above 100 µM; in assay [5] it was above 100 µM; in assay [6], above 100 µM. The TGI was 98.4 µM in assay [7] and above 100 µM in assay [8].
On to `CC1(C)OCC(COC(=O)NCn2cc(-c3ccccc3)nn2)O1` (stereo unspecified), for which the TGI in assay [1], in assay [2], in assay [3], in assay [4], in assay [5] and in assay [6] was above 100 µM throughout. Further, the TGI in assay [7] and in assay [8] was above 100 µM throughout.
Turning to `COP(=O)(OC)c1ccc(NCc2cc(O)ccc2O)cc1`, the TGI in assay [1] is 56.4 µM; in assay [2] it was above 92.2 µM; in assay [3] it was 32.2 µM; in assay [4], 99.3 µM; in assay [5], 62.4 µM; in assay [6], above 100 µM. The TGI was 39.1 µM in assay [7] and above 72.1 µM in assay [8].
Consider `CSC1(SC)N2Cc3ccccc3N=C2C1(c1ccccc1)c1ccccc1`, for which the TGI was above 89 µM in assay [1]; above 53.1 µM in assay [2]; above 100 µM in assay [3]; above 87.9 µM in assay [4]; 97.1 µM in assay [5]; above 100 µM in assay [6]. Also, the TGI in assay [7] was 27.6 µM; in assay [8] it was above 58.9 µM.
Regarding `COC(=O)c1c(O)ccc2c1c1c(n2Cc2ccccn2)C(=O)c2ccccc2C1=O`, the TGI in assay [1] was above 100 µM; in assay [2], above 100 µM; in assay [3] it was 58.1 µM; in assay [4], above 100 µM; in assay [5], above 100 µM; in assay [6] it was above 100 µM. For the same molecule, the TGI in assay [7] was 89.8 µM; in assay [8], above 100 µM.
On to `CCCCC1(N=[N+]=[N-])C(=O)C2C=CC=C3c4ccccc4N(C1=O)C32` (stereo unspecified), for which the TGI in assay [1] was above 31.6 µM; in assay [2] it was above 100 µM; in assay [3], above 31.6 µM; in assay [4] it was 28.1 µM; in assay [5], above 31.6 µM; in assay [6] it was above 31.6 µM. For the same molecule, the TGI in assay [7] and in assay [8] was above 31.6 µM throughout.
Take `COc1c(-c2cccs2)oc2c(CC(=O)O)cccc2c1=O`: the TGI in assay [1] was above 100 µM; in assay [2], above 100 µM; in assay [4] it was above 100 µM; in assay [5], 5.92 µM; in assay [7], above 100 µM; in assay [8], above 100 µM.
As to `CNC(=O)c1ccccc1[S+]1c2cccc3cccc(c23)C(=O)N1C` (stereo unspecified), the TGI in assay [1], in assay [2], in assay [3], in assay [4], in assay [5] and in assay [6] was above 100 µM each time. Further, the TGI in assay [7] and in assay [8] was above 100 µM in each case.
With `CCCCCCCCCCCCCCCCCCOc1ccc(/C=C/C2=[N+](CCCl)CCO2)cc1`, the TGI in assay [1], in assay [2], in assay [3], in assay [4], in assay [5] and in assay [6] was above 100 µM throughout. Also, the TGI in assay [7] and in assay [8] was above 100 µM in each case.
On to `Cc1[nH]c(=O)nc2nc3ccc(Cl)cc3c(NC(C)(CO)CO)c12`, for which the TGI was above 100 µM in assay [1]; above 100 µM in assay [2]; above 100 µM in assay [3]; above 100 µM in assay [4]; above 100 µM in assay [5]; above 95.3 µM in assay [6]. Also, the TGI in assay [7] and in assay [8] was above 100 µM each time.
As to `COc1cc(/C=c2/c3ccccc3n3c2cc(-c2ccccc2)[n+]3C)cc(OC)c1OC`, the TGI in assay [1] is 22.4 µM; in assay [2], 7.2 µM; in assay [3], 15 µM; in assay [4], 20.6 µM; in assay [5] it was above 32.1 µM; in assay [6], 17.9 µM. For the same molecule, the TGI in assay [7] was determined as 5.67 µM; in assay [8], 13.6 µM.
On to `Cc1nc2c(Cl)cc(Cl)cc2c(Cl)c1CCCl`, for which the TGI in assay [1], in assay [2], in assay [3], in assay [4], in assay [5] and in assay [6] was above 100 µM each time. The TGI in assay [7] and in assay [8] was above 100 µM each time.
Turning to `COc1ccc(-c2nnc(CCCCCCCCc3nnc(-c4ccc(OC)cc4)n3N)n2N)cc1`, the TGI in assay [1], in assay [2], in assay [3], in assay [4], in assay [5] and in assay [6] was above 100 µM throughout. The TGI in assay [7] and in assay [8] was above 100 µM throughout.
For the molecule `S=c1nc2sc3c(c2c(Nc2ccc(Br)cc2)[nH]1)CCN(N1CCc2c(sc4nc(=S)[nH]c(Nc5ccc(Br)cc5)c24)C1)C3`, the TGI in assay [1], in assay [2], in assay [3], in assay [4], in assay [5] and in assay [6] was above 50 µM each time. Moreover, the results for the TGI in assay [7] and in assay [8] were above 50 µM and 19 µM, respectively.

(Values after PubChem BioAssay (NCI).)
